Assay results: US11497796B2, “Agents directed against a cis RGMa/neogenin interaction or lipid rafts and use of the same in methods of treatment” (UNIVERSITY HEALTH NETWORK, priority 2013, dated 2022)

Experiments:
[1] = system: Neogenin-induced apoptosis in chick tecta; test: TUNEL assay after Neogenin electroporation; type: in vivo; details: injected into tecta after Neogenin electroporation; for number of TUNEL+ cells: without agent 432±23
Experimental: (A) HEK293 cells that stably express RGMa (FIG. 11) were transfected with empty plasmid (Ctrl) or Neogenin (Neo). Neogenin induced cell death (arrows) when compared to control. (B) Quantification of cell death in Neogenin-transfected cells that were incubated in BSA (Neo+Ctrl), 4Ig (1 μg/ml), N-Raft (1 μg/ml), Noggin (100 nM), or MβCD (10 mM). […] Data were average±SEM (n=3 independent experiments), *p<0.0001. (C) Representative images and (D) Quantification of cell death in chick E5 tecta electroporated with GFP- and a Neogenin-expression plasmid and then injected with N-RGMa50-99 (Ctrl; 1 μg/ml), 4Ig (1 μg/ml), or N-Raft (1 μg/ml) and subjected to TUNEL assay. […] Data were an average±SEM from 3 different tecta/conditions (*p<0.001). Bar, 100 μm. (E) Representative images and (F) Quantification of retinal whole mounts incubated for 4 days with control peptide (1 μg/ml), 4Ig (1 μg/ml), N-Raft (1 μg/ml), or MβCD (10 mM) and dead cells were stained with Propidium Iodide (PI). Images from 9 whole mounts per condition from 3 independent experiments were taken at the same intensities and the fluorescence measured using ImageJ. […] Bar, 500 μm. (G) Fluorescence micrographs of flat-mounted retinas depicting Fluorogold-labeled retinal ganglion cells (RGCs) in injured retinas at 14 days following axotomy. Control retinas (Ctrl) had few surviving RGCs. 4Ig, N-raft or MβCD increased cell survival. Bar, 200 μm. (H) Representations of the retinal areas selected in our analyses. […] Data were average±SEM (n=6 eyes), *p<0.01.
RGMa was expressed in the developing chick neural tube, and thus, to determine if Neogenin required lipid rafts for its pro-death function in vivo, apoptosis was examined in the neural tubes of chick embryos (E2). Specifically, a GFP-construct was electroporated with plasmids that expressed either Mock or Neogenin and apoptosis was assayed by TUNEL staining.

[2] = system: retinal axons (axonal pathfinding); test: In ovo electroporation and DiI tracing of axonal paths; type: in vivo, chick; details: ectopic expression in the eye at E2
Experimental: Eggs (White Leghorn) were incubated at 38° C. in a high humidity chamber. A small amount of viral solution (viral titers of 1×10^8 IU/ml) was mixed with 1/10 volume of 0.25% fast green solution (Molecular Probes) and injected in the tectum at E1.5. Eggs were further incubated until E15, when a small DiI crystal (Molecular Probes) was placed in the temporo-dorsal part of the right eye. At E17, embryos were sacrificed and the tecta fixed in 4% PFA. DiI tracing was viewed under the microscope (Olympus BX61) after cutting the tecta in half. Digital Images of the tecta were taken and processed using Photoshop (Adobe). Alternatively, plasmid constructs were electroporated into the optic vesicle to restrict expression to the eye and tracing performed as above.
To study the effect of the interaction between 4Ig and N-Raft on axonal paths in vivo, 4Ig, N-Raft, and the control NRGMa^50-99 were ectopically expressed and axonal pathfinding was examined. To ensure that the treatments affected growing axons and not their environment, when electroporation was performed, the application of the electric field was narrowed to the optic vesicle at E2, thereby restricting expression to the eye and retinal axons (FIG. 3G).

photoreceptor cells = test: Photoreceptor survival in rd1 mice (retinitis pigmentosa model); type: in vivo, mouse
Experimental: The rd1 mouse model is a model for human RP and carried a loss-of-function mutation in the gene encoding for the β-subunit of the rod photoreceptor cGMP phosphodiesterase-6.2. This loss-of-function mutation led to an accumulation of cGMP, which caused photoreceptor cell death.
In these studies, intraocular injection of the 4Ig (2 μg/μl) peptide at P9 and P15 was performed and animals were sacrificed at P21 to examine cell survival. […] Injection of 4Ig increased outer nuclear layer (ONL) thickness to about 6 cells (FIG. 19). This measurement was the average thickness of the ONL.
As described above, cholesterol depletion removes lipid rafts. Specifically, mice were treated with daily […] (IP) injections of MβCD from P9 to P21.
To examine the effect of reducing cholesterol synthesis on cell survival, AY-9944 was examined in rd1 mice (FIGS. 20 and 21). Rd1 mice were treated using two intra-peritoneal injections of AY-9944, at P9 and P15 and sacrificed at P21.

[3] = intraocular injection at P9 and P15

Row | Molecule | reduction of the number of TUNEL+ cells [1] | number of TUNEL+ cells [1] | electroporations that caused aberrant axonal paths [2] [%] | average depth of the ONL (photoreceptor cells; daily injections P9 to P21) | increase in the average thickness of the ONL (photoreceptor cells; daily injections P9 to P21) | photoreceptor survival (photoreceptor cells; daily injections P9 to P21) | number of rods within the Outer Nuclear Layer (anti-Rhodopsin) (photoreceptor cells; injected at P9, P21) | outer nuclear layer (ONL) thickness (photoreceptor cells; intraocular injection 2 μg/μl at P9 and P15, P21, control about 2 cells) | increase of ONL thickness compared to control mice (photoreceptor cells; [3]) | number of photoreceptors within the retina vs control (photoreceptor cells; [3])
1 | N-Raft: peptide spanning amino acids 28-73 of RGMa (SEQ ID NO:2) (SPCKILKCNSEFWAATSGSHHLGAEETPEFCTALRAYAHCTRRTAR; N-Raft - amino acids 28-73 of RGMa) | about 4 fold | 103±8 | 85.7 |  |  |  |  |  |  | 
2 | methyl-β-cyclodextrin [MβCD, reference compound] |  |  |  | about 6 cells | three-fold | photoreceptor survival was improved | dramatic increase in the number of rods |  |  | 
3 | 4Ig: four immunoglobulin-like domains of Neogenin, amino acids 1 to 383 of Accession No. AAC59662 (SEQ ID NO:1) (protein, listed as Gallus gallus, Neogenin - Accession No. AAC59662) RSGPRSPLTGSVVRTFTPFYFLVEPMDILSVRGASVIMNCSSYCETPPKIEWKKDGTLLNLVSDDRRQLLPDGSLLINSVVHSKHNKPDEGYYQCVATVESLGSIVSRTAKLTVAGLPRFTSQPELSSVYKGNSAILNCEVNVDLAPFVRWEQDRQPLSLDDRVFKLPSGALLIGNATDTDGGFYRCVIESGGTPKYSEEAELKILPDPEEPQSLVFVRQPSSLTKVTGQNAVFPCVAGGFPTPYVRWTKNGEELITEDSERFALRAGGSLLISDVTEEDVGTYTCIADNENETIEAQAELAVQVPPEFLKRPANIYAHESMDIVFECEVTGKPTPTVKWVKNGDVVIPSDYFKIVKEHNLQVLGLVKSDEGFYQCIAENDVGNAQAGAQLIILDLDVAIPTLPPTSLTSATNDHLAPATTGPLPTAPRDVVATLVSTRFIRLTWRTPVSDPQGDNLTYSIFYTKEGINRERVENTSRPGETQVMIQNLMPETVYVFRVVAQNKHGHGESSAPLKVATQPEVQLPGPAPNIRAYAGSPTSVTVTWETPLSGNGEIQNYKLYYMEKGQDSEQDVDVAGLSYTITGLKKYTEYSFRVVAYNKHGPGVSTQDVVVRTLSDVPSAAPQNLTLEARNSKSIMLHWQPPPAGTHSGQITGYKIRYRKVSRKSDVTESVGGTQLFQLIEGLERGTEYNFRIAAMTVNGTGPATDWVSAETFESDLDESRVPEVPSSLHVRPLVTSIVVSWTPPENQNIVVRGYAIGYGIGSPHAQTIKVDYKQRYYTIENLDPSSHYVITLKAFNNVGEGIPLYESAVTRPHSDTSEVDLFVINAPYTPVPDPSPMMPPVGVQASILSHDTIRITWADNSLPKNQKITDARYYTVRWKTNIPANTKYKTANATTLSYLVTGLKPNTLYEFSVMVTKGRRSSTWSMTAHGTTFELVPTSPPKDVTVVSKEGKPRTIIVNWQPPSEANGKITGYIIYYSTDVNAEIHDWVIEPVVGNRLTHQIQELTLDTPYYFKIQARNSKGMGPMSEAVQFRTPKAESSDKMPNDQASGSAGKGSRPVDVGPDYKPPLSGSNSPHGSPTSPLDSNMLLVIIVSVGVITIVIVVIVAVFCTRRTTSHQKKKRAACKSVNGSHKYKGNSKDVKPPDLWIHHERLELKPIDKSPDPNPIMTDTPIPRNSQDITPVDNSMDSNIHQRRNSYRGHESEDSMSTLAGRRGMRPKMMMPFDSQPPQPVISAHPIHSLDNPHHHFHSGSLASPTRSYLHHQVSPWPVGTSMSHSDRANSTESVRNTPSSDTMPASSSQPCADHQDPDSSSGAYLGSAQEEDAAQSLPTAHVRPSHPLKSFAVPAVPAAGSAYDPTLPSTPLLTQQAPSHPVHSVKTASIGTLGRTRPPMPVVVPSAPDVQETTRMLEDSESSYEPDELTKEMAHLEGLMKDLNAITTA | about 18 fold | 23±4 | 100 |  |  |  |  | about 6 cells | more than three-fold | significantly improved the number of photoreceptors
